Experimental data published in PMC5218480 (PLoS ONE, 2017).

System: MV-4-11 cells
Experiment: Gene expression microarray analysis (Affymetrix PrimeView) and GSEA
Format: cell-based, human
Conditions: gene VPS36; ACY-1035 1 mM; LIST F

In the case of `Nc1ccc(-c2cccs2)cc1NC(=O)c1ccc2c(c1)cc(C1CC1)n2CCN1CCOCC1` [ACY-1035], the “RFU, VPS36 (ProbeSet 11739960_a_at)” value is reported as 54.57 RFU.
